The source of these data is US20050202511A1, “AMP-activated protein kinase (AMPK) inhibitor screening assay” (priority 2002, published 2005).

The target of experiment [1] is T1, CLC2 CBS domain pair G826D (Homo sapiens, UniProt P51788, G828D).
T1 construct: DNAs encoding residues 582-840 of CLC2; made in house; host or cells: E. coli BL21 (DE3)
Briefly: Filter binding assay, GST-CBS domain fusion. The following applies: single-site model. The text has this:
(§1) DNA encoding the CBS domain pair from the chloride channel CLC2 was also cloned and expressed. […] The G715E mutation, in the linker between the first and second CBS domains of CLC2, is associated with idiopathic generalized epilepsy (29), while the G826D mutation is in an equivalent position in the second CBS domain to the G859D mutation in CLC1 that is associated with congenital myotonia (28).
(§2) For IMPDH2, DNAs encoding residues 112-232 or the full-length protein (1-514) were amplified using human liver cDNA (Clontech) as template, and cloned into pHAT20 (Clontech) using 5′-AgeI and 3′-KpnI sites added to the primers. For the other constructs, DNAs encoding residues 582-840 of CLC2, or 416-551 of cystathionine â-synthase, were amplified using human liver cDNA as template, and cloned into pGEX-KG as above using 5′-BamHI and 3′-XhoI sites added to the primers. All mutations were created using the Stratagene QuikChange Site-directed Mutagenesis system.
(§3) Various concentrations of [^14C]-AMP, [γ^32P] […] Reactions were stopped by spotting 10 ìl onto a Millipore MF Filter Membrane disc and rapidly washing under high vacuum with 1 ml of ice-cold TBS. Radioactivity was determined on the filters by scintillation counting. Non-specific binding (which was trivial) was determined by performing the assay with GST as a control, and was subtracted. […]

Another experiment concerns the target T2, CLC2 CBS1-2 (G715E) (Homo sapiens, UniProt P51788, G715E).
T2 construct: DNAs encoding residues 582-840 of CLC2; made in house; host or cells: E. coli BL21 (DE3)
Briefly: Filter binding assay, GST-CBS domain fusion. The following applies: single-site model.
Description: as §1, §2, §3

Experiment [2] concerns the target T3, recombinant á1â1γ2 heterotrimer (H383R) (Homo sapiens, UniProt Q9UGJ0, H383R).
T3 construct: expressed in transfected cells; host or cells: CCL13 cells
Kind of experiment: AMPK heterotrimer kinase assay, activation by AMP. The format is biochemical. The following applies: slow lysis; estimate somewhat less accurate; read-out: A0.5. From the text:
(§4) Plasmids expressing myc-tagged á1, â1 and γ1, γ2 (with or without WPWS mutations) or γ3 were expressed in CCL13 cells and the recombinant complexes immunoprecipitated using anti-myc antibodies.
(§5) For this reason, the estimates of A0.5 for the H383R and T400N mutants are somewhat less accurate than the others, while no value could be obtained for the R531 G mutant. […] With some mutants, the maximal activation also appeared to be affected.
(§6) PCDNA plasmids (14,25,32) encoding á1, â1 and γ1, γ2 or γ3 were expressed in CCL13 cells (25), subject to “rapid lysis”, immunoprecipitated using anti-myc antibody, and assayed as described previously (33). “Slow lysis” of CCL13 cells was as described by Stein et al (34).

Experiment [3] addresses recombinant á1â1γ2 heterotrimer (Lins) (Homo sapiens, UniProt Q9UGJ0, INS350L). Briefly: AMPK heterotrimer kinase assay, activation by AMP. The format is biochemical. The following applies: immunoprecipitated from CCL13 cells, slow lysis; read-out: A0.5.
Description: as §4, §5, §6

In experiment [4] the target is T4, recombinant á1â1γ2 heterotrimer (R302Q) (Homo sapiens, UniProt Q9UGJ0, R302Q).
T4 construct: expressed in transfected cells; host or cells: CCL13 cells
T4 sequence (Q9UGJ0 whole entry R302Q): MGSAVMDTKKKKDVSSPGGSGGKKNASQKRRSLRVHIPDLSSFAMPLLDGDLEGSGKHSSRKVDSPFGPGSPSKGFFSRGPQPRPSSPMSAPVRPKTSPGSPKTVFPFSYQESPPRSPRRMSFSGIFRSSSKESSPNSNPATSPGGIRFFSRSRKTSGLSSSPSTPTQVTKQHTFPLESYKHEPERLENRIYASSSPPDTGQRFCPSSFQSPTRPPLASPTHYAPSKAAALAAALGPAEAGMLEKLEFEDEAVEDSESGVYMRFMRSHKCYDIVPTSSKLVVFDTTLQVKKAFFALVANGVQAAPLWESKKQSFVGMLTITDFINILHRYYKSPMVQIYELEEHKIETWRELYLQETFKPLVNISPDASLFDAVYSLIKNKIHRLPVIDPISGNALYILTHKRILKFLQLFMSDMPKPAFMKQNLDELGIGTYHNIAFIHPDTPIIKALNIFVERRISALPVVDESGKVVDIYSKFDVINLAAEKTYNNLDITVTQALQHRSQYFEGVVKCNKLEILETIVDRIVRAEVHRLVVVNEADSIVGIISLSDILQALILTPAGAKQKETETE
T4 sequence (P54645 whole entry partner): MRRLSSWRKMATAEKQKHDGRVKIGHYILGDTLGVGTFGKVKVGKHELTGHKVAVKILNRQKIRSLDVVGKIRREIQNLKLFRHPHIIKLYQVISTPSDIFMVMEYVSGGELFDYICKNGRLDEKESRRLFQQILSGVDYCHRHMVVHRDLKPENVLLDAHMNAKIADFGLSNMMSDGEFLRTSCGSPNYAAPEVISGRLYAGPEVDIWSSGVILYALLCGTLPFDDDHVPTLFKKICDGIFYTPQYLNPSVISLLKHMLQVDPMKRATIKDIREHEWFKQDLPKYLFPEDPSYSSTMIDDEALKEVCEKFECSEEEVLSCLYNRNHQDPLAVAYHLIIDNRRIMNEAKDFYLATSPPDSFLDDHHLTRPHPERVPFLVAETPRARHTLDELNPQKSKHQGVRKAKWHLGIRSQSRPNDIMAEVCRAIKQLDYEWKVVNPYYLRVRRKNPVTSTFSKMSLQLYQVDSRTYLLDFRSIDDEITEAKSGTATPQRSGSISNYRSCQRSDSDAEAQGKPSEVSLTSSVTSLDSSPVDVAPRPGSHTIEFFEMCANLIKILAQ
T4 sequence (P80386 whole entry partner): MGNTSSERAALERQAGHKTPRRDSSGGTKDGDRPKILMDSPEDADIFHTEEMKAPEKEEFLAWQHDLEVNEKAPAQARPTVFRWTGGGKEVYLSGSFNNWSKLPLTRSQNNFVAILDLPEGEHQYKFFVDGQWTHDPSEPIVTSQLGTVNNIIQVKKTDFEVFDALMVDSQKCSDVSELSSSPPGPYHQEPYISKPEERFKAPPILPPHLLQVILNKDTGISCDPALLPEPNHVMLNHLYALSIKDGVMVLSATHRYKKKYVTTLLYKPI
Briefly: AMPK heterotrimer kinase assay, activation by AMP. It counts as biochemical.
Description: as §4, §5, §6

Experiment [5] deals with T5, recombinant á1â1γ2 heterotrimer (R531G) (Homo sapiens, UniProt Q9UGJ0, R531G).
T5 construct: expressed in transfected cells; host or cells: CCL13 cells
T5 sequence (Q9UGJ0 whole entry R531G): as the sequence (Q9UGJ0 whole entry R302Q) above, with Q302R, R531G counted along it
T5 sequence (P54645 whole entry partner): as the sequence (P54645 whole entry partner) above
T5 sequence (P80386 whole entry partner): as the sequence (P80386 whole entry partner) above
Kind of experiment: AMPK heterotrimer kinase assay, activation by AMP. The format is biochemical.
Description: as §4, §5, §6

The target of experiment [6] is T6, recombinant á1â1γ2 heterotrimer (T400N) (Homo sapiens, UniProt Q9UGJ0, T400N).
T6 construct: expressed in transfected cells; host or cells: CCL13 cells
T6 sequence (Q9UGJ0 whole entry T400N): as the sequence (Q9UGJ0 whole entry R302Q) above, with Q302R, T400N counted along it
T6 sequence (P54645 whole entry partner): as the sequence (P54645 whole entry partner) above
T6 sequence (P80386 whole entry partner): as the sequence (P80386 whole entry partner) above
Briefly: AMPK heterotrimer kinase assay, activation by AMP. The format is biochemical. The following applies: slow lysis; estimate somewhat less accurate; read-out: A0.5.
Description: as §4, §5, §6

A further experiment relates to AMPK. Briefly: Activation of AMPK (data not shown). It counts as biochemical. The following applies: read-out: concentration giving half-maximal activation.
A further experiment addresses T7, IMPDH2 CBS1-2 (R224P) (Homo sapiens, UniProt P12268, R224P).
T7 construct: DNAs encoding residues 112-232 or the full-length protein (1-514) were amplified; His tag (pHAT20 vector); made in house; host or cells: E. coli
Briefly: Filter binding assay, isolated CBS domain pair. The following applies: single-site model.
Description: To examine whether binding of adenine nucleotides is a general function for CBS domains, or is specific to the γ subunits of AMPK, IMP dehydrogenase (IMPDH) was also studied. Retinitis pigmentosa can be caused by an R224P mutation in the second CBS domain of the IMPDH1 isoform (27). However, the IMPDH2 isoform is 84% identical in amino acid sequence with IMPDH1, and the arginine mutated in retinitis pigmentosa is conserved. Because the IMPDH2 isoform is ubiquitously expressed and a suitable cDNA to use as a template for PCR was more readily available, DNA encoding the single pair of CBS domains from human IMPDH2 was cloned, an R224P mutation was created and expressed both the wild type and the mutant as His-tagged proteins in E. coli.
as §2
The IMPDH2 constructs were His-tagged and were purified on chelating-Sepharose (Pharmacia) charged with 50 mM CoCl2 according to manufacturer's instructions.
Various concentrations of [^14C]-AMP, [γ^32P] […] Reactions were stopped by spotting 10 ìl onto a Millipore MF Filter Membrane disc and rapidly washing under high vacuum with 1 ml of ice-cold TBS. Radioactivity was determined on the filters by scintillation counting. Non-specific binding (which was trivial) was determined by performing the assay with GST as a control, and was subtracted. […] Data were fitted to the binding models given in the text, using GraphPad Prism 3. […]

A further experiment has as its target T8, AMPK-γ2 CBS1-2 construct (Homo sapiens, UniProt Q9UGJ0).
T8 construct: the N-terminal pair (CBS1-2, residues 274-410); made in house; host or cells: E. coli BL21 (DE3)
Kind of experiment: Displacement of [14C]AMP by unlabelled MgATP. The format is binding. The following applies: high concentrations of MgATP. The procedure:
This yielded estimates for KdAMP and KdATP of 51 and 180 iM. These are very close to the estimates obtained by direct binding measurements (53 and 175 iÌ).
Various concentrations of [^14C]-AMP, [γ^32P] […] Reactions were stopped by spotting 10 ìl onto a Millipore MF Filter Membrane disc and rapidly washing under high vacuum with 1 ml of ice-cold TBS. Radioactivity was determined on the filters by scintillation counting. Non-specific binding (which was trivial) was determined by performing the assay with GST as a control, and was subtracted. […] Data were fitted to the binding models given in the text, using GraphPad Prism 3. Estimates of parameters resulting from fits are quoted in the text and Table 1±standard error, and the curves shown in figures are theoretical curves obtained using those estimates.
Background: Loss of bound radioactivity is the signal in a displacement assay; it reports binding, not function.

Experiment [7] concerns the target T9, full-length IMPDH2 (R224P) (Homo sapiens, UniProt P12268, R224P).
T9 construct: DNAs encoding residues 112-232 or the full-length protein (1-514) were amplified using human liver cDNA; His tag (vector pHAT20); made in house; host or cells: E. coli
Briefly: Enzymatic assay of IMPDH2. The following applies: highest concentration used 2 mM. It counts as biochemical. The method, then:
(§7) IMPDH2 was assayed by following the increase in absorbance at 340 nm due to formation of NADH in a BMG Fluostar Optima plate reader at 30° C. in plate mode. The assay buffer contained 50 mM Tris/HCl, 100 mM KCl, 1 mM DTT, 3 mM EDTA, and 5 mM MgCl. […] The total volume was 200 μl and the reaction started by addition of IMP (or NAD^+ where [IMP] was the variable).

Experiment [8] has as its target T10, full-length IMPDH2 (wild type) (Homo sapiens, UniProt P12268).
T10 construct: DNAs encoding residues 112-232 or the full-length protein (1-514) were amplified using human liver cDNA; His tag (vector pHAT20); made in house; host or cells: E. coli
Kind of experiment: Enzymatic assay of IMPDH2. The format is biochemical. The procedure:
as §7

Like-named read-outs stand apart in the source and are kept apart here. Some results are limits rather than exact numbers.

T3 sequence (Q9UGJ0 whole entry H383R): as the sequence (Q9UGJ0 whole entry R302Q) above, with Q302R, H383R counted along it
T3 sequence (P54645 whole entry partner): as the sequence (P54645 whole entry partner) above
T3 sequence (P80386 whole entry partner): as the sequence (P80386 whole entry partner) above
recombinant á1â1γ2 heterotrimer (Lins), sequence (Q9UGJ0 with tags, fused parts or gaps INS350L): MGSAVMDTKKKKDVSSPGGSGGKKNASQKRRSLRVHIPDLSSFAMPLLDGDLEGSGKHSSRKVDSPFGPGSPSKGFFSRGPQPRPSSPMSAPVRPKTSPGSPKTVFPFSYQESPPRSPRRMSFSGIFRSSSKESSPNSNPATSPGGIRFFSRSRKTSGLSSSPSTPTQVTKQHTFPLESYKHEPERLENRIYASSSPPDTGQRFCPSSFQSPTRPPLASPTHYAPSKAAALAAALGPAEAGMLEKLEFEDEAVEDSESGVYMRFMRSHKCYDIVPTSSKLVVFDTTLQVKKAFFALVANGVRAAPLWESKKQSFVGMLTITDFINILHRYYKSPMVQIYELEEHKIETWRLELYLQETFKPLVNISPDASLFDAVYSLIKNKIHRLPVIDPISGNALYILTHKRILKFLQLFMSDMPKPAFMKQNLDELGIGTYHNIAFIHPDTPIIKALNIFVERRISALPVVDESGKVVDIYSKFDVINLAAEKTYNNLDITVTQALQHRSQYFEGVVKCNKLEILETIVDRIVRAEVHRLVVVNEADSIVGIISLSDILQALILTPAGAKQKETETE
T2 sequence (P51788 582-840 G715E): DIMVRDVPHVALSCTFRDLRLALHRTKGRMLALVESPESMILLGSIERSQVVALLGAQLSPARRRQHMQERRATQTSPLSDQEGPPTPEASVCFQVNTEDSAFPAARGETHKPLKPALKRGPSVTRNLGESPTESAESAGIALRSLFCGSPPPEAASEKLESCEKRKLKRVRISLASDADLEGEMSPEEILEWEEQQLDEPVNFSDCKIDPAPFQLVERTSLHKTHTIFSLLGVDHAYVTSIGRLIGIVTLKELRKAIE
T1 sequence (P51788 582-840 G828D): as the sequence (P51788 582-840 G715E) above, with E134G, G247D counted along it
T8 sequence (Q9UGJ0 274-410): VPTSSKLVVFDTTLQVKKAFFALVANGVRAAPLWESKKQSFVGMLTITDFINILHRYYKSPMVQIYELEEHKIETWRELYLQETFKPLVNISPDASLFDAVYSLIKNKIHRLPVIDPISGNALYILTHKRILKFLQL

Usually Kd stands for the constant that tells how readily two partners part at equilibrium. A low value points to higher affinity. For `Nc1ncnc2c1ncn2[C@@H]1O[C@H](COP(=O)(O)O)[C@@H](O)[C@H]1O` [AMP, adenosine monophosphate], the Kd was 14300 ± 550 µM in [1] and 10400 ± 1300 µM at CLC2 CBS1-2 (G715E). In addition, the EC50 is 51 ± 40 µM in [2]; 9 ± 4 µM in experiment [3]; 23 ± 6 µM in experiment [4] (immunoprecipitated from CCL13 cells, slow lysis, read-out: A0.5); greater than 100 µM in experiment [5] (read-out: A0.5); 95 ± 32 µM in experiment [6]; 4.7 µM in the experiment with AMPK. Besides, the “stimulation by AMP” value in experiment [4] is reported as 3 fold. Besides, in experiment [5], the “effect of adding AMP on activity” value is on record as “inhibited”.
Take `Nc1ncnc2c1ncn2[C@@H]1O[C@H](COP(=O)(O)OP(=O)(O)OP(=O)(O)O)[C@@H](O)[C@H]1O` [ATP]: the Kd on IMPDH2 CBS1-2 (R224P) was found to be 450 ± 36 µM. In addition, at AMPK-γ2 CBS1-2 construct, the “displacement of [14C]AMP binding” value is reported as “completely displaced”. Further, the effect on activity entry in [7] is given as “no effect”. Also, in experiment [8], the “Hill coefficient of activation” value turned out to be 1.3±0.1 and the “stimulation of IMPDH activity (Vmax)” value is greater than 4 fold. The EC50 in experiment [8] (read-out: A0.5 for ATP activation, as printed in discussion) was determined as 440 µM. For the same compound, the EC50 in [8] (read-out: half-maximal effect) was determined as 440 ± 50 µM.
